Paper PMC13270519, “Cytochrome P450-Mediated Metabolism of Antimycobacterial Nα‑Aroyl‑N‑aryl-phenylalanine Amides” (ACS Infectious Diseases, 2026)

Assay: Metabolic stability in mouse liver microsomes (t1/2)
Type: in vitro ADME
Settings: NADPH, 37 °C
Protocol: Microsomal incubations were carried out in 96-well plates in 3 aliquots of 30 μL each (one for each time point). Liver microsomal incubation medium comprised phosphate buffer (100 mM, pH 7.4), MgCl2 (3 mM), NADPH (3 mM), glucose-6-phosphate (5.3 mM), and glucose-6-phosphate dehydrogenase (0.67 units/mL) with 0.42 mg of liver microsomal protein per mL. In the control reactions, the NADPH-cofactor system was substituted with phosphate buffer. Test compounds (2 μM, final solvent concentration 1.6%) were incubated with microsomes at 37 °C, shaking at 100 rpm. Three time points over 7 min were analyzed. The reactions were stopped by adding 5 volumes of methanol with internal standard to incubation aliquots followed by protein sedimentation by centrifuging at 6,000 rpm for 20 min. Each reaction was performed in duplicate. Supernatants were analyzed using the HPLC system coupled with a tandem mass spectrometer and high-resolution mass spectrometer.
The incubation was stopped after defined time points by precipitation of aliquots of enzymes with 2 volumes of cold internal standard solution (15 nM diphenhydramine in 10% methanol/acetonitrile). […] The remaining test compound at the different time points was analyzed by HPLC-MS/MS (Vanquish Flex coupled to a TSQ Altis Plus, Thermo Fisher, Dreieich, Germany) and used to determine half-life (t 1/2).

SMILES	Mouse liver microsomes t1/2 [min]
O=C(N[C@H](Cc1ccccc1)C(=O)Nc1ccccc1N1CCS(=O)(=O)CC1)c1ccccc1F [AAP-SO2]	1.8
O=C(N[C@H](Cc1ccccc1)C(=O)Nc1ccccc1N1CCOCC1)c1cccs1 [MMV688845]	0.9
